# Assay results as given in PubChem BioAssay (NCI).
#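 1) Cells in 96-well plates. 2) Compound, 48 h, 5 concentrations. 3) Linear interpolation between surrounding doses. 4) Unreached endpoint = highest concentration. TGI denotes the concentration required for complete inhibition of growth.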
# Columns and labels:
# Assay in all cases: NCI anticancer screen, dose series, 48 h
# [1] = system: RPMI-8226 leukemia
# [2] = system: COLO 205 colon
# [3] = system: NCI/ADR-RES ovarian
# [4] = system: SK-MEL-2 melanoma
# [5] = system: CAKI-1 renal
# [6] = system: M14 melanoma
# [7] = system: SF-539 CNS
# [8] = system: EKVX NSCLC
# [9] = system: SN12C renal
SMILES,TGI [1],TGI [2],TGI [3],TGI [4],TGI [5],TGI [6],TGI [7],TGI [8],TGI [9]
CC(C)(C)c1cc(C(=O)/C=C/c2ccc3c(c2)OCO3)cc(C(C)(C)C)c1O,16.9 µM,13.2 µM,16.8 µM,10.4 µM,> 100 µM,65.3 µM,20 µM,> 100 µM,76.4 µM
CCOC(=O)C#Cc1ccccc1,35.2 µM,25.9 µM,> 100 µM,5.86 µM,33.4 µM,39.1 µM,19.3 µM,10.9 µM,80.1 µM
CCOC(=O)c1cn2c(n1)sc1cc(Cl)cc(Cl)c12,> 100 µM,> 100 µM,> 100 µM,> 100 µM,> 100 µM,> 100 µM,> 100 µM,> 100 µM,> 100 µM
CC(=O)O[C@H]1CCc2c(cc(N)c3c2C(=O)C[C@]2(C)C([C@H](C)CCCC(C)C)CCC32C)C1(C)C (some centres undefined),> 100 µM,> 100 µM,> 100 µM,> 100 µM,> 100 µM,> 100 µM,> 100 µM,> 100 µM,> 100 µM
Cn1c2ccccc2c(=O)c2c(O)cc3c(c21)C=CC1(CCCCC1)O3,> 10 µM,> 10 µM,> 10 µM,> 10 µM,> 10 µM,> 10 µM,> 10 µM,> 10 µM,> 10 µM
C=C1c2nc3ccccc3n2C=C(c2ccc(Cl)cc2)N1c1ccc(OC)cc1,> 100 µM,> 100 µM,14 µM,66.5 µM,19.1 µM,21 µM,19.2 µM,25.9 µM,60 µM
CN(C)CC1CCC(CN(C)C)C1=O (centres undefined),3.33 µM,1.41 µM,63.8 µM,21.6 µM,1.95 µM,7.38 µM,33.3 µM,11 µM,13.4 µM
CCOP(=O)(/C=C\n1ccc(N)nc1=O)OCC,> 100 µM,> 100 µM,> 100 µM,> 100 µM,> 100 µM,> 100 µM,> 100 µM,> 100 µM,> 100 µM
Oc1[nH]c2ccccc2c1N=NC(=S)Nc1ccc(Cl)cc1,> 100 µM,> 100 µM,38.8 µM,> 100 µM,64 µM,45.2 µM,82.3 µM,> 100 µM,> 100 µM
S=c1cc(-c2ccc3c(c2)OCO3)s[nH]1,> 100 µM,> 100 µM,> 100 µM,> 100 µM,> 100 µM,> 100 µM,> 100 µM,> 100 µM,> 100 µM
Cc1ccc(/C=C2\Cc3c(C)cc(C)cc3C2=O)c(C(=O)O)c1,53.1 µM,98.2 µM,> 100 µM,83.6 µM,> 100 µM,> 100 µM,46.2 µM,> 100 µM,> 100 µM
CNC(=O)CCCNC(=O)CCCC(=O)N(C)C,> 100 µM,> 100 µM,> 100 µM,> 100 µM,> 100 µM,> 100 µM,> 100 µM,> 100 µM,> 100 µM
COc1cc2c(cc1OC)-c1cc3ccccc3c(=O)n1CC2,35 µM,> 100 µM,> 100 µM,48.8 µM,64.9 µM,80.3 µM,41.9 µM,> 100 µM,> 100 µM
COCCOCCOC1=CC(=O)c2c(O)ccc(O)c2C1=O,4.26 µM,0.883 µM,4.85 µM,3.47 µM,2.04 µM,2.14 µM,3.9 µM,7.54 µM,3.8 µM
N#Cc1nc(C2CCC2)oc1N,> 100 µM,> 100 µM,> 100 µM,> 100 µM,> 100 µM,> 100 µM,> 100 µM,> 100 µM,> 100 µM
C\C(=N/N=C1/C(=C\N(C)C)C(=O)NC(=O)N1C)c1ccc(Cl)cc1,> 100 µM,> 100 µM,> 100 µM,> 100 µM,> 100 µM,> 100 µM,> 100 µM,> 100 µM,> 100 µM
O=c1[nH]c(Nc2cccc(CO)c2)nc2nc[nH]c12,> 100 µM,> 100 µM,> 100 µM,> 100 µM,> 100 µM,> 100 µM,> 100 µM,> 100 µM,> 100 µM
O=C1CSC2=NC3=C(COC/C3=C\c3ccc(Br)cc3)C(c3ccc(Br)cc3)N12 (centres undefined),> 100 µM,> 100 µM,> 100 µM,> 100 µM,> 100 µM,94.6 µM,> 100 µM,> 100 µM,> 100 µM
CO[C@@H]1O[C@H](C(=O)c2ccccc2)[C@H]2OC(C)(C)O[C@@H]12,> 100 µM,> 100 µM,> 100 µM,> 100 µM,> 100 µM,> 100 µM,> 100 µM,> 100 µM,> 100 µM
COc1ccc(CC2COc3cc(O)cc(O)c3C2=O)cc1O (centres undefined),28.5 µM,43.8 µM,8.78 µM,> 100 µM,> 100 µM,> 100 µM,10.1 µM,> 100 µM,> 100 µM
COC1CC(OC2CCC3(C)C(=CCC4C3C(OC(C)=O)C(OC(=O)CC(C)C)C3(C)C(C(C)=O)CCC43O)C2)OC(C)C1OC1CC(OC)C(OC2CC(OC)C(OC3OC(C)C(OC4OC(CO)C(O)C(O)C4O)C(OC)C3O)C(C)O2)C(C)O1 (centres undefined),> 75 µM,> 75 µM,> 75 µM,> 75 µM,> 75 µM,> 75 µM,> 75 µM,> 75 µM,> 75 µM
